These results are taken from patent US12290512B2, “Gel composition with an anaesthetic effect of short and long term duration” (priority 2018, dated 2025).

SMILES strings stand for the structures.

This assay is described as follows: anaesthetic effect (onset and duration) of gel composition administered through the urethra. The assay is classed as in vivo. As to conditions: gel compositions comprising the anaesthetic.

`CCCN1CCCC[C@H]1C(=O)Nc1c(C)cccc1C` [ropivacaine] showed a duration of action of 2 to 10 h and an onset of action of 10 to 20 min. Take `CCN(CC)CC(=O)Nc1c(C)cccc1C` [lidocaine]: the duration of action was 0.25 to 0.333 h. For the molecule `CCCCN1CCCCC1C(=O)Nc1c(C)cccc1C` (centres unmarked) [bupivacaine], the duration of action result is on record as “up to 7 hours” and the onset of action fell in the range of 7 to 10 min.
